From PMC9925730, “Controlled sequential in situ self-assembly and disassembly of a fluorogenic cisplatin prodrug for cancer theranostics” (Nature Communications, 2023)
Values joined by “and” are separate entries in the source; they are usually repeats but may differ in a detail not shown here. Identical values can stand only once.

What was measured:
[1] = Blood analysis in healthy mice (blood count, biochemistry); type: in vivo; set-up: BUN / CRE / WBC / HGB / HCT / MCH / MCHC / MCV / RBC / ALT / AST / TP / T-Bil / Alb: unit not given here; details: for HGB: Supplementary Fig. 36, first HGB block; for ALT / AST / Alb / BUN / CRE / HCT / MCH / MCHC / MCV / PLT / RBC / T-Bil / TP / WBC: Supplementary Fig. 36
[2] = test system: orthotopic HepG2/Luc liver tumors; assay: Chemotherapy of orthotopic liver tumors (BL imaging, ex vivo BL and FL imaging); type: in vivo, mice;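 further: bioluminescence quantified by ROI over liver region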
[3] = Body weight of mice with orthotopic HepG2/Luc liver tumors; type: in vivo; details: mean of 3, in g (unit assumed)

For [NH2][Pt]([NH2])([Cl])[Cl] [CDDP, cisplatin], the HGB ([1]; individual mice) was 90 (2×) and 67, the HGB ([1]; mean of 3 mice) was 82.333 and the ALT ([1]; individual mice) was 45.502 and 43.964 and 66.025. The AST ([1]; individual mice) was 126.05 and 97.802 and 100.507, the Alb ([1]; individual mice) was 26.65 and 25.18 and 35.22 and the BUN ([1]; individual mice) was 18.956 and 37.908 and 23.94. For the same compound, the CRE ([1]; individual mice) was 19.831 and 68.509 and 25.561, the HCT ([1]; individual mice) was 35.4 and 40.2 and 41.2 and the MCH ([1]; individual mice) was 16.6 and 15.9 and 18.6. The MCHC ([1]; individual mice) was 350 and 331 and 324, the MCV ([1]; individual mice) was 51.5 and 49.5 and 51.3 and the PLT ([1]; individual mice) was 591 and 289 and 329. The RBC ([1]; individual mice) was 7.14 and 6.54 and 6.58, the T-Bil ([1]; individual mice) was 21.47 and 18.852 and 18.358 and the TP ([1]; individual mice) was 42.81 and 40.21 and 50.47. For the same compound, the WBC ([1]; individual mice) was 1.9 and 1.2 and 1.6, the ALT ([1]; mean of 3 mice) was 51.830 and the AST ([1]; mean of 3 mice) was 108.120. It also gave an Alb ([1]; mean of 3 mice) of 29.017, a BUN ([1]; mean of 3 mice) of 26.935 and a CRE ([1]; mean of 3 mice) of 37.967. The HCT ([1]; mean of 3 mice) was 38.933, the MCH ([1]; mean of 3 mice) was 17.033 and the MCHC ([1]; mean of 3 mice) was 335.000. It also gave an MCV ([1]; mean of 3 mice) of 50.767, a PLT ([1]; mean of 3 mice) of 403.000 and an RBC ([1]; mean of 3 mice) of 6.753. The T-Bil ([1]; mean of 3 mice) was 19.560, the TP ([1]; mean of 3 mice) was 44.497 and the WBC ([1]; mean of 3 mice) was 1.567. The “tumor BL intensity of liver” value ([2]; 2.25 mg kg^−1 Pt i.v. day 0, 3, 6, 9, 12, day 3) was 88767.5, the “tumor BL intensity of liver” value ([2]; day 6) was 201697.5 and the “tumor BL intensity of liver” value ([2]; day 9) was 375850.0. For the same compound, the “tumor BL intensity of liver” value ([2]; day 12) was 589375.0, the “Body weight of mice (Supplementary Fig. 34)” value (“Body weight of mice” for short) ([3]; time 0 d) was 20.65 and the “Body weight of mice” value ([3]; time 3 d) was 20.2. The “Body weight of mice” value ([3]; time 6 d) was 19.4233, the “Body weight of mice” value ([3]; time 9 d) was 18.65 and the “Body weight of mice” value ([3]; time 12 d) was 17.8733. For the same compound, the “Body weight of mice” value ([3]; time 15 d) was 17.5.
